# According to PubChem BioAssay AID1159558 (GlaxoSmithKline (GSK), 2015):
# Calls of active or inactive are those of the source.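 How the source made its calls: active means IC50 against T. cruzi CYP51 below a set limit; inactive means the rest.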
# Target: Sterol 14-alpha demethylase (Trypanosoma cruzi (strain CL Brener)) (UniProt Q7Z1V1)
# Assay: T. cruzi sterol 14-alpha demethylase inhibition – biochemical, recombinant enzyme, mechanism study for T. cruzi antiparasitic project, dose response (AID 1159558);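 further: enzyme in bacterial membranes with Anopheles gambiae CYP reductase and cytochrome b5 partners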
# Details: recombinant T. cruzi CYP51, BOMCC fluorescence
# Sequence of Sterol 14-alpha demethylase (Trypanosoma cruzi (strain CL Brener)) (Q7Z1V1 whole entry, looked up): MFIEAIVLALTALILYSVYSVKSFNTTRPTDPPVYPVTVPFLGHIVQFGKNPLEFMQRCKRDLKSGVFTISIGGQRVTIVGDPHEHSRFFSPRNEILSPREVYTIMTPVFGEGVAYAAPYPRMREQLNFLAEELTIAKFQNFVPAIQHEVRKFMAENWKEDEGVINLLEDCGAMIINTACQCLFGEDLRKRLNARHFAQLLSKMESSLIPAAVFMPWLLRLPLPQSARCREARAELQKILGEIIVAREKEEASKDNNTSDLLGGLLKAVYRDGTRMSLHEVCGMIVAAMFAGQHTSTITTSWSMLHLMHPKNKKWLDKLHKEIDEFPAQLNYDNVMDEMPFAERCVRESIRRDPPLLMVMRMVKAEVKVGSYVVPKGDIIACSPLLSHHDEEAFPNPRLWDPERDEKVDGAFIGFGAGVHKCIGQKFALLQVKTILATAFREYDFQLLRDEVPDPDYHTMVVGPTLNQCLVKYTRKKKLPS
row,IC50,SMILES
1,79 µM,Cc1cc2nc(CN(C)Cc3ncccc3C)[nH]c2cc1C
2,0.079 µM,O=C(NCCc1ccccc1Cl)c1cccn1-c1cccnc1
3,10 µM,CCCn1c(NC(=O)CCn2cc(Br)cn2)nc2ccccc21
4,> 100 µM (inactive),CC(=O)Nc1nc(-c2cc(C)ccc2C)c(C)s1
5,> 100 µM (inactive),Cc1nc2c(-c3cccs3)c(C)nn2c(NCCO)c1C
6,> 100 µM (inactive),N#Cc1cc([N+](=O)[O-])ccc1NC1CCCCCC1
7,> 100 µM (inactive),O=C(NCCc1csc(-c2ccc(F)cc2)n1)c1ccco1
8,> 100 µM (inactive),NS(=O)(=O)c1ccc(Nc2nccc(-c3cnn4ncccc34)n2)cc1
9,> 100 µM (inactive),CCC(CC)C(=O)Nc1cccc(C(=O)Nc2nnc(C3CCCCC3)s2)c1
10,> 100 µM (inactive),N#Cc1cccc(CN2CCC(c3nc(-c4ccc(C(F)(F)F)nc4)no3)CC2)c1
11,> 100 µM (inactive),CCN(CC)S(=O)(=O)c1ccc(C(=O)Nc2cc(C)nn2-c2nc(C)c(C)c(=O)[nH]2)cc1
12,1 µM,COc1ccc2ncc(Cl)c(CCN3CC[C@@H](NCc4cc5c(cn4)OCS5)[C@H](O)C3)c2n1
13,0.079 µM,CCC(c1ccc(F)cc1)n1cncc1-c1cnn(C)c1 (centres undefined)
14,> 100 µM (inactive),O=C(Nc1nc2ccccc2[nH]1)c1c(O)c2cccc3c2n(c1=O)CC3
15,0.05 µM,CN(Cc1ccc(F)cc1)c1ccc(OCC(=O)N2CCCCC2c2cccnc2)nn1 (centres undefined)
16,> 100 µM (inactive),CS(=O)(=O)c1ccc(CC(=O)Nc2nc(-c3ccc(Cl)s3)cs2)cc1
17,5 µM,Cc1nc(-c2ccc3c(c2)OCO3)sc1C(=O)NCc1ccc2c(c1)OCO2
18,0.05 µM,CN(Cc1ccccc1)Cc1nnnn1C1CCN(Cc2ccc(-n3ccnc3)cc2)CC1

# Further lines, the compound ahead of its results:
row,SMILES,IC50
1,N#Cc1cccc(Cc2cc(Nc3cc(C4CC4)[nH]n3)nc(N3CC[C@H]3C(N)=O)n2)c1,50 µM
2,CCN(Cc1ccncc1)Cc1ccc(NC(=O)c2cc(-c3ccc(F)cc3)n[nH]2)cc1,0.079 µM
3,Cc1ccc2ccc(C(Nc3ccccn3)c3cccnc3)c(O)c2n1 (centres undefined),0.05 µM
4,Cc1cccnc1NC(=O)c1cccc(OCc2c(C)noc2C)c1,50 µM
5,O=C(Nc1cccc(F)c1)N1CCC(Oc2cccc(-c3cccnc3)c2)CC1,0.16 µM
6,CC(C)Nc1nccc(-c2c(-c3ccc(F)cc3)ncn2C2CCOCC2)n1,> 100 µM (inactive)
7,Cc1c(CNC(=O)c2ccc(Cn3cc(Cl)c([N+](=O)[O-])n3)cc2)cnn1C,> 100 µM (inactive)
8,Cc1[nH]nc2c1C(c1ccc(OCc3ccccc3F)cc1)SCC(=O)N2 (centres undefined),> 100 µM (inactive)
9,COc1cc(OC)cc(C(NS(=O)(=O)c2ccc(Cl)c(C(F)(F)F)c2)c2nccn2C)c1 (centres undefined),32 µM
10,O=C(Nc1ccc(-c2nc3ccccc3c(=O)[nH]2)cc1)c1cccs1,> 100 µM (inactive)
11,Cc1nn(-c2nc(N)nc(-c3ccccn3)n2)c(C)c1Cc1ccccc1,63 µM
12,O=C(N[C@H](CO)c1ccccc1)c1ccc(-c2c[nH]c3nccc(C(F)(F)F)c23)s1,6.3 µM
13,COc1ccc(C(=O)N2CCC(Nc3cccnc3)C2)c(OC)n1 (centres undefined),0.063 µM
14,CC1CN(Cc2ccc(C#N)cc2)CCN1c1ccc(NC(=O)c2ccccc2F)cc1 (centres undefined),32 µM
15,CC(C)(C)C(O)(CCc1ccc(Cl)cc1)Cn1cncn1 (centres undefined),0.13 µM
16,O=c1ccc2ccc(F)c3c2n1C[C@H]3CN1CCC(NCc2cc3ccccc3o2)CC1,32 µM
17,CC(C)(C)CC(=O)NCCc1csc(-c2ccc(F)cc2)n1,20 µM
18,COc1cc(C2SCC(=O)Nc3c2c(C)nn3-c2nc3ccccc3s2)cc(OC)c1O (centres undefined),5 µM
19,CC(=O)NCCNc1cc(-c2ccnc(Nc3cccc(Cl)c3)n2)ccn1,5 µM
20,O=S(=O)(c1ccccc1C(F)(F)F)N1CCN(Cc2ccc(-n3ccnc3)cc2)CC1,0.1 µM
21,Cc1cc(C)cc(NS(=O)(=O)c2cc(-c3cc(C)[nH]n3)ccc2C)c1,7.9 µM
22,CC1(Oc2cncc(Cl)c2)CCN(Cc2cc3ccccc3[nH]2)C1 (centres undefined),10 µM
23,O=C1COC(c2ccccc2)(c2ccccc2)CN1C1CCN(Cc2ccc(-n3ccnc3)cc2)CC1,0.079 µM
24,CCNc1cc(-c2ccccn2)nc(Nc2ccc(OC)cc2)n1,40 µM
25,O=C(N1CCc2ccccc2CC1)C1(C(=O)N2CCC(n3c(=O)[nH]c4ncccc43)CC2)CC1,0.32 µM
26,CCC(CC)C(=O)Nc1ccc(-c2nnc(-c3ccc(OC)cc3)o2)cc1,13 µM
